Reference: US20170334899A1, “AMINO-SUBSTITUTED ISOTHIAZOLES” (Bayer Pharma Aktiengesellschaft, priority 2014, published 2017)
pIC50: −log10 of the molar value.

Target: T1, human kinase Mps-1 (Homo sapiens, UniProt P33981)
T1 construct: N-terminally GST-tagged human full length recombinant Mps-1 kinase; GST (N); purchased Invitrogen, Karslruhe, Germany PV4071
T1 sequence (P33981 1-857): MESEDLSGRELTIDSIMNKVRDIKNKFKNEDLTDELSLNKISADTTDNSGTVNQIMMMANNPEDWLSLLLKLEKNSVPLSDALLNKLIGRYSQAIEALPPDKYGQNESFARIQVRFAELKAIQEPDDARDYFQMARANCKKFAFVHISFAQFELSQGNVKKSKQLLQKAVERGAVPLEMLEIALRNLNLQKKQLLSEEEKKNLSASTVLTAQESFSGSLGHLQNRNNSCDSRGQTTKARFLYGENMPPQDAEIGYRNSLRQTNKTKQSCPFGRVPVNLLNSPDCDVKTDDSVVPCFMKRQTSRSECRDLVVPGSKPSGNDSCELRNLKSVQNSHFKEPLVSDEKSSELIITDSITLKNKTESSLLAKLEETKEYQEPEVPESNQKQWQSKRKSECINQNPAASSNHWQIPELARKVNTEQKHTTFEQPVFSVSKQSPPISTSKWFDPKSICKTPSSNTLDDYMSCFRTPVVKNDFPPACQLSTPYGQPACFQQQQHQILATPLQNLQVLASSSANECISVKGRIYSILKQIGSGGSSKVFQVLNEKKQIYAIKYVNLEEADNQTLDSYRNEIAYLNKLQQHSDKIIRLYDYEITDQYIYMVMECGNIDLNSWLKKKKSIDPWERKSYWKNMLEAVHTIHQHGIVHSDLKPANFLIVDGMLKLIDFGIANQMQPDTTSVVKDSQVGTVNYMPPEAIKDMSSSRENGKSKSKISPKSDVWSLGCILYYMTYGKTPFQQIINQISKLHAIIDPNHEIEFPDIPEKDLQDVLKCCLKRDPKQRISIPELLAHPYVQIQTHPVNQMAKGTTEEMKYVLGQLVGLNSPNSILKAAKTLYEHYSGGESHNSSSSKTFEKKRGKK
Test: Mps-1 kinase assay (TR-FRET)
Type: biochemical
Details: Mps-1 TR-FRET kinase assay; avg; read-out: Mps1 avg (IC50 [mol/l])
How it was run: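 GST-tagged full-length recombinant human Mps-1 (~0.5 nM) pre-incubated 15 min with compound, then reacted 60 min at 22 °C with 10 μM ATP and 1 μM biotinylated peptide in Hepes pH 7.7 buffer. EDTA-stopped; TR-FRET (Eu anti-phospho-Ser/Thr to SA-XLent) 665/620 nm ratio normalised to no-inhibitor and no-enzyme controls.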

pIC50 | SMILES
< 4.70 | Cc1nsc(Nc2cnc(C(F)(F)F)cn2)c1C(=O)Nc1ccc(CCC2CCN(CC(F)F)CC2)nc1 [Example 356, N-(6-{2-[1-(2,2-difluoroethyl)piperidin-4-yl]ethyl}pyridin-3-yl)-3-methyl-5-{[5-(trifluoromethyl)pyrazin-2-yl]amino}-1,2-thiazole-4-carboxamide]
< 4.70 | Cc1nsc(Nc2cnc(C(F)(F)F)cn2)c1C(=O)Nc1ccc(OCC2CCN(CCF)CC2)nc1 [Example 344, N-(6-{[1-(2-fluoroethyl)piperidin-4-yl]methoxy}pyridin-3-yl)-3-methyl-5-{[5-(trifluoromethyl)pyrazin-2-yl]amino}-1,2-thiazole-4-carboxamide]
< 4.70 | Cc1nsc(Nc2cnc(C(F)(F)F)cn2)c1C(=O)Nc1ccc(OCCCN(C)CCF)nc1 [Example 352, N-(6-{3-[(2-fluoroethyl)(methyl)amino]propoxy}pyridin-3-yl)-3-methyl-5-{[5-(trifluoromethyl)pyrazin-2-yl]amino}-1,2-thiazole-4-carboxamide]
< 4.70 | Cc1nsc(Nc2cnc(C(F)(F)F)cn2)c1C(=O)Nc1ccc(OCC2CCN(CC(F)F)CC2)nc1 [Example 345, N-(6-{[1-(2,2-difluoroethyl)piperidin-4-yl]methoxy}pyridin-3-yl)-3-methyl-5-{[5-(trifluoromethyl)pyrazin-2-yl]amino}-1,2-thiazole-4-carboxamide]
≤ 4.70 | Cc1nsc(Nc2cnc(C(F)(F)F)cn2)c1C(=O)Nc1ccc(F)c(OCC2CCCN(CC(F)F)C2)c1 (stereo not drawn) [Example 334, N-(3-{[1-(2,2-difluoroethyl)piperidin-3-yl]methoxy}-4-fluorophenyl)-3-methyl-5-{[5-(trifluoromethyl)pyrazin-2-yl]amino}-1,2-thiazole-4-carboxamide]
4.72 | Cc1nsc(Nc2cnc(C(F)(F)F)cn2)c1C(=O)Nc1ccc(OCCCN(C)CC(F)F)nc1 [Example 353, N-(6-{3-[(2,2-difluoroethyl)(methyl)amino]propoxy}pyridin-3-yl)-3-methyl-5-{[5-(trifluoromethyl)pyrazin-2-yl]amino}-1,2-thiazole-4-carboxamide]
< 4.70 | CCN1CC[C@@H](Oc2ccc(NC(=O)c3c(C)nsc3Nc3cnc(C(F)(F)F)cn3)cn2)[C@H](F)C1 [Example 369, N-(6-{[(3R,4R)-1-ethyl-3-fluoropiperidin-4-yl]oxy}pyridin-3-yl)-3-methyl-5-{[5-(trifluoromethyl)pyrazin-2-yl]amino}-1,2-thiazole-4-carboxamide]
< 4.70 | Cc1nsc(Nc2cnc(C(F)(F)F)cn2)c1C(=O)Nc1ccc(OC[C@@H]2CCCN(CC(F)F)C2)nc1 [Example 375, N-(6-{[(3R)-1-(2,2-difluoroethyl)piperidin-3-yl]methoxy}pyridin-3-yl)-3-methyl-5-{[5-(trifluoromethyl)pyrazin-2-yl]amino}-1,2-thiazole-4-carboxamide]
< 4.70 | Cc1nsc(Nc2cnc(C(F)(F)F)cn2)c1C(=O)Nc1ccc(N2CCN(CC(F)(F)F)CC2)cn1 [Example 373, 3-methyl-N-{5-[4-(2,2,2-trifluoroethyl)piperazin-1-yl]pyridin-2-yl}-5-{[5-(trifluoromethyl)pyrazin-2-yl]amino}-1,2-thiazole-4-carboxamide]
≤ 4.70 | Cc1nsc(Nc2cnc(C(F)(F)F)cn2)c1C(=O)Nc1ccc(OCCN(C)CCF)nc1 [Example 348, N-(6-{2-[(2-fluoroethyl)(methyl)amino]ethoxy}pyridin-3-yl)-3-methyl-5-{[5-(trifluoromethyl)pyrazin-2-yl]amino}-1,2-thiazole-4-carboxamide]
≤ 4.70 | Cc1nsc(Nc2cnc(C(F)(F)F)cn2)c1C(=O)Nc1ccc(OC2CCCN(C(CF)CF)C2)nc1 (stereo not drawn) [Example 333, N-(6-{[1-(1,3-difluoropropan-2-yl)piperidin-3-yl]oxy}pyridin-3-yl)-3-methyl-5-{[5-(trifluoromethyl)pyrazin-2-yl]amino}-1,2-thiazole-4-carboxamide]
< 4.70 | Cc1nsc(Nc2cnc(C(F)(F)F)cn2)c1C(=O)Nc1ccc(O[C@@H]2CCN(CC(F)F)C[C@H]2F)nc1 [Example 366, N-(6-{[(3R,4R)-1-(2,2-difluoroethyl)-3-fluoropiperidin-4-yl]oxy}pyridin-3-yl)-3-methyl-5-{[5-(trifluoromethyl)pyrazin-2-yl]amino}-1,2-thiazole-4-carboxamide]
< 4.70 | Cc1nsc(Nc2cnc(C(F)(F)F)cn2)c1C(=O)Nc1ccc(OCC2CCN(CC(F)(F)F)CC2)nc1 [Example 346, 3-methyl-N-(6-{[1-(2,2,2-trifluoroethyl)piperidin-4-yl]methoxy}pyridin-3-yl)-5-{[5-(trifluoromethyl)pyrazin-2-yl]amino}-1,2-thiazole-4-carboxamide]
≤ 4.70 | Cc1nsc(Nc2cnc(C(F)(F)F)cn2)c1C(=O)Nc1ccc(OC2CCCN(CCC(F)(F)F)C2)nc1 (stereo not drawn) [Example 332, 3-methyl-5-{[5-(trifluoromethyl)pyrazin-2-yl]amino}-N-(6-{[1-(3,3,3-trifluoropropyl)piperidin-3-yl]oxy}pyridin-3-yl)-1,2-thiazole-4-carboxamide]
≤ 4.70 | Cc1nsc(Nc2cnc(C(F)(F)F)cn2)c1C(=O)Nc1ccc(OCCN(C)CC(F)(F)F)nc1 [Example 350, 3-methyl-N-(6-{2-[methyl(2,2,2-trifluoroethyl)amino]ethoxy}pyridin-3-yl)-5-{[5-(trifluoromethyl)pyrazin-2-yl]amino}-1,2-thiazole-4-carboxamide]
< 4.70 | Cc1nsc(Nc2cnc(C(F)(F)F)cn2)c1C(=O)Nc1ccc(O[C@@H]2CCN(CC(F)(F)F)C[C@H]2F)nc1 [Example 367, N-(6-{[(3R,4R)-3-fluoro-1-(2,2,2-trifluoroethyl)piperidin-4-yl]oxy}pyridin-3-yl)-3-methyl-5-{[5-(trifluoromethyl)pyrazin-2-yl]amino}-1,2-thiazole-4-carboxamide]
≤ 4.70 | Cc1nsc(Nc2ccc(C#N)cn2)c1C(=O)Nc1ccc(OC2CCNCC2)nc1 [Example 28, 5-[(5-Cyanopyridin-2-yl)amino]-3-methyl-N-[6-(piperidin-4-yloxy)pyridin-3-yl]-1,2-thiazole-4-carboxannide]
< 4.70 | Cc1nsc(Nc2cnc(C(F)(F)F)cn2)c1C(=O)Nc1ccc(C2CCN(CC(F)(F)F)CC2)nc1 [Example 358, 3-methyl-N-{6-[1-(2,2,2-trifluoroethyl)piperidin-4-yl]pyridin-3-yl}-5-{[5-(trifluoromethyl)pyrazin-2-yl]amino}-1,2-thiazole-4-carboxamide]
< 4.70 | Cc1nsc(Nc2cnc(C(F)(F)F)cn2)c1C(=O)Nc1ccc(C2CCN(CC(F)F)CC2)nc1 [Example 357, N-{6-[1-(2,2-difluoroethyl)piperidin-4 yl]pyridin-3-yl}-3-methyl-5-{[5-(trifluoromethyl)pyrazin-2-yl]amino}-1,2-thiazole-4-carboxamide]
< 4.70 | Cc1nsc(Nc2cnc(C(F)(F)F)cn2)c1C(=O)Nc1ccc(O[C@@H]2CCN(CCC(F)(F)F)C[C@H]2F)nc1 [Example 368, N-(6-{[(3R,4R)-3-fluoro-1-(3,3,3-trifluoropropyl)piperidin-4-yl]oxy}pyridin-3-yl)-3-methyl-5-{[5-(trifluoromethyl)pyrazin-2-yl]amino}-1,2-thiazole-4-carboxamide]
≤ 4.70 | Cc1nsc(Nc2cnc(C(F)(F)F)cn2)c1C(=O)Nc1ccc(OCCN(C)CC(F)F)nc1 [Example 349, N-(6-{2-[(2,2-difluoroethyl)(methyl)amino]ethoxy}pyridin-3-yl)-3-methyl-5-{[5-(trifluoromethyl)pyrazin-2-yl]amino}-1,2-thiazole-4-carboxamide]
4.82 | Cc1nsc(Nc2cnc3ccccc3n2)c1C(=O)Nc1ccc(OC2CCCNC2)nc1 (stereo not drawn) [Example 32, 3-Methyl-N-[6-(piperidin-3-yloxy)pyridin-3-yl]-5-(quinoxalin-2-ylamino)-1,2-thiazole-4-carboxannide]
≤ 4.70 | Cc1nsc(Nc2cnc(C(F)(F)F)cn2)c1C(=O)Nc1ccc(OC2CCCN(CC(F)F)C2)nc1 (stereo not drawn) [Example 330, N-(6-{[1-(2,2-difluoroethyl)piperidin-3-yl]oxy}pyridin-3-yl)-3-methyl-5-{[5-(trifluoromethyl)pyrazin-2-yl]amino}-1,2-thiazole-4-carboxamide]
< 4.70 | Cc1nsc(Nc2cnc(C(F)(F)F)cn2)c1C(=O)Nc1ccc(N2CCN(CC(F)F)CC2)nc1 [Example 359, N-{6-[4-(2,2-difluoroethyl)piperazin-1-yl]pyridin-3-yl}-3-methyl-5-{[5-(trifluoromethyl)pyrazin-2-yl]amino}-1,2-thiazole-4-carboxamide]
